Laboratory results taken from paper PMC10609741 (Pharmaceutics, 2023).
Values after ≈ are worked out from the molar mass of the structure shown.

Assays:
[1] = Phase solubility study with β-CD (apparent solubility constant K1:1); assay type: physicochemical; conditions: 1:1 complex, K1:1 = Slope/S0(1−Slope); β-CD 0–15 mmol/L
Method: (§1) Stock solutions of β-CD were prepared in the concentration range of 0–15 mmol/L. From each stock solution 1 mL was taken and introduced into thermomixer flasks and 1 mL of suprasaturated solution of 4b, 4g, 4k, 4m was added and stirred at 600 rpm at 25 °C for 24 h, then at 60 °C for 24 h, and finally left to rest, at 25 °C, for another 24 h. UV absorbance was monitored within 190–320 nm on extracts freshly diluted with deionized water, and the maximum wavelength of 226 nm was selected for solubility determinations. All measurements were made in triplicate.

Swiss albino mice [2] = experiment: Hot-plate test; assay type: in vivo; conditions: oral gavage; for pain inhibition: after 4 h
Method: (§2) The tests were performed using Swiss albino mice (25–30 g) which were divided in groups of eight mice each.
A hot-plate test was performed using a hot plate apparatus (DS 37; UgoBasile). The plate was set at 55 ± 0.1 °C and the response latency was noted as the interval between placing the animal on the plate and the occurrence of licking, shaking of the hind paws, or jumping off the surface. The latency of the analgesic response was measured at onset and at 1, 2, 3, and 4 h. The experiment cut-off time was set to 15 s to prevent tissue damage. For each group, the mean value (±S.E.) was reported.

[3] = Solubility of the ibuprofen derivative in water in the absence of β-CD (S0), UV 226 nm; assay type: physicochemical; conditions: water without β-CD, 25 °C, from calibration curves
Method: as §1

Swiss albino mice [4] = experiment: Tail-flick test; assay type: in vivo; conditions: oral gavage
Method: as §2
The tail-flick test measures the reflex latency after exposure to a heating source, in order to evaluate the spinal response to pain. The tail flick unit (37360; UgoBasile, Gemonio, Italy) directs heat and stimulates the distal part of the mouse tail. The tail-flick latency is defined as the period before the mouse removed its tail from heat stimuli. The pain response at onset and at 1, 2, 3, and 4 h after administration of drugs, was noted. To prevent tissue lesions, the experiment cut-off time was set at 12 s. The pain inhibition (%) was calculated for each tested compound/β-CD complex and for each group the mean value (±S.E.) was reported.

Swiss albino mice [5] = experiment: Acetic acid writhing test; assay type: in vivo; conditions: acetic acid 1% i.p. 4 h after oral administration, writhes counted over 30 min
Method: as §2
To determine visceral pain, a writhing test was used. […] The mice were placed in a large glass cylinder and the number of abdominal writhes was recorded over a period of 30 min. The inhibition (%) of writhings was calculated to ascertain the analgesic effect. For each group, the mean value (±S.E.) was reported.

Swiss albino mice [6] = experiment: Paw formalin test; assay type: in vivo; conditions: formalin 5% 4 h after oral administration
Method: as §2
The analgesic and anti-inflammatory effects of the compounds were evaluated using formalin assay. […] The time (s) that the mice spent licking and/or biting the injected paw was recorded. Depending on the time value, the pain can be classified as neurogenic pain (0 to 5 min), interphase pain (5 to 15 min), and inflammatory pain (15 to 30 min). For each group, the mean value (±S.E.) was reported.

[7] = 1/20 of LD50, maximum after 2 h

SMILES	apparent solubility constant (K1:1) in the presence of β-CD [1] [mol⁻¹]	pain inhibition (Swiss albino mice [2]) [%]	solubility [3] [µg/mL]	pain inhibition, maximum effect (Swiss albino mice [4]; [7]) [%]	inhibition of writhings (Swiss albino mice [5]) [%]	pain inhibition, maximum effect (Swiss albino mice [4]; 1/20 of LD50, maximum at 3 h) [%]	time of maximum analgesic effect (Swiss albino mice [2]; 1/20 of LD50) [h]	time mice spent licking the formalin-injected paw, first phase (Swiss albino mice [6]; first phase 0–5 min, neurogenic pain) [s]	time mice spent licking the formalin-injected paw, second phase (Swiss albino mice [6]; second phase 15–30 min, inflammatory pain) [s]
CC(C)Cc1ccc(C(C)C(=O)NN2C(=O)CSC2c2ccc(Cl)cc2)cc1 (centres unmarked) [4b]	771.81	58.93	9.21 (≈ 22.1 µM)	25.54	–	–	–	–	–
CC(C)Cc1ccc(C(C)C(=O)NN2C(=O)CSC2c2ccc([N+](=O)[O-])cc2)cc1 (centres unmarked) [4g]	723.50	–	15 (≈ 35.1 µM)	24.90	–	–	–	–	–
CC(C)Cc1ccc(C(C)C(=O)NN2C(=O)CSC2c2ccc(C#N)cc2)cc1 (centres unmarked) [4k]	713.6510	63.03	22.8 (≈ 55.9 µM)	–	58.60	32.01	–	–	–
CC(C)Cc1ccc(C(C)C(=O)NN2C(=O)CSC2c2ccc(N)cc2)cc1 (centres unmarked) [4m]	–	–	38.1 (≈ 95.9 µM)	–	–	44.19	3	–	–
CC(C)Cc1ccc(C(C)C(=O)[O-])cc1.[Na+] (centres unmarked) [Ibu-Na, Ibuprofen sodium, reference compound]	–	47.22	–	–	55.65	45.86	–	59.50	32
